The test system of data set [1] is Trypanosoma brucei brucei. The experiment in a line: Antitrypanosomal activity against Trypanosoma brucei brucei Lister 427 bloodstream forms by microtiter plate based assay. The class given is functional, organism-based.
A short description of data set [2]: Selectivity index, ratio of IC50 against human WI38 cells to IC50 for Plasmodium falciparum 3D7. The class given is toxicity, cell-based, WI-38. The following applies: read-out: Ratio IC50.
The subject of data set [3] is Plasmodium falciparum. The experiment in a line: Potency index, ratio of IC50 for CN to IC50 for test compound against Plasmodium falciparum 3D7 by parasite lactate dehydrogenase assay. It is filed as functional.
Data set [4] in a line: Cytotoxicity against human WI38 cells by MTT assay. The class given is cell-based, WI-38. The conditions noted are these: Homo sapiens, WI-38; read-out: IC50.
Data set [5] relates to Plasmodium falciparum. As to the kind of experiment: Antiplasmodial activity against Plasmodium falciparum 3D7 assessed as reduction in parasite viability by parasite lactate dehydrogenase assay. The class given is functional, organism-based.
The next data set in a line: in vitro. The following applies: human, WI38 cells.
For data set [6], the system named is Trypanosoma brucei brucei. The experiment in a line: Potency index, ratio of IC50 for CN to IC50 for test compound against Trypanosoma brucei brucei Lister 427 bloodstream forms by microtiter plate based assay. It is filed as functional.
Data set [7] relates to Plasmodium falciparum. The experiment in a line: Potency index, ratio of IC50 for CND to IC50 for test compound against Plasmodium falciparum 3D7 by parasite lactate dehydrogenase assay. It is filed as functional.
In data set [8] the test system is Trypanosoma brucei brucei. The experiment in a line: Potency index, ratio of IC50 for CND to IC50 for test compound against Trypanosoma brucei brucei Lister 427 bloodstream forms by microtiter plate based assay. The class given is functional.

The values that follow come from ChEMBL document CHEMBL3588788, “Structure-activity relationship of hybrids of Cinchona alkaloids and bile acids with in vitro antiplasmodial and antitrypanosomal activities” (Eur J Med Chem, 2015).

Description for in vitro: Selectivity index, ratio of IC50 against human WI38 cells to IC50 for Trypanosoma brucei brucei Lister 427 bloodstream forms

By IC50 is commonly meant the midpoint of a concentration-inhibition curve. As to `C=C[C@H]1CN2CC[C@H]1C[C@@H]2[C@@H](O)c1cc(CC[C@@H](C)[C@H]2CC[C@H]3[C@@H]4C[C@H](OC(C)=O)[C@@H]5C[C@H](OC(C)=O)CC[C@]5(C)[C@H]4CC[C@]23C)nc2ccccc12`, the results for the IC50 (in data set [1]; in data set [4]; with Plasmodium falciparum [5]) were 640 nM, 4.28 µM and 186 nM, respectively. The selectivity ratio turned out to be 23 in [2] and 6.6 in the data set “in vitro”. The “Ratio IC50” value with Plasmodium falciparum [3] stood at 1.6; in data set [6] it was 105.7.

In the case of `C=C[C@H]1CN2CC[C@H]1C[C@@H]2[C@@H](O)c1cc(CC[C@@H](C)[C@H]2CC[C@H]3[C@@H]4[C@H](OC(C)=O)[C@H](OC(C)=O)[C@@H]5C[C@H](OC(C)=O)CC[C@]5(C)[C@H]4CC[C@]23C)nc2ccccc12`, the values for the IC50 (in [1]; in data set [4]; in the data set on Plasmodium falciparum [5]) were 510 nM, 4.17 µM and 40.8 nM, respectively. Also, the selectivity ratio in [2] was found to be 102; in the data set “in vitro”, 8.3. Further, the results for the “Ratio IC50” value (in the data set on Plasmodium falciparum [3]; in [6]) were 7.2 and 134.6, respectively.

With `C=C[C@H]1CN2CC[C@H]1C[C@@H]2[C@@H](O)c1cc(CC[C@@H](C)[C@H]2CC[C@H]3[C@@H]4CC[C@@H]5C[C@H](OC(C)=O)CC[C@]5(C)[C@H]4C[C@H](OC(C)=O)[C@]23C)nc2ccccc12`, the values for the IC50 (in data set [1]; in data set [4]; in the data set with Plasmodium falciparum [5]) were 1510 nM, 4.8 µM and 171 nM, respectively. Also, the selectivity ratio is 28.1 in data set [2] and 3.2 in “in vitro”. The “Ratio IC50” value is on record as 1.7 with Plasmodium falciparum [3] and 45.1 in data set [6].

For `C=C[C@H]1CN2CC[C@H]1C[C@@H]2[C@@H](O)c1cc(CC[C@@H](C)[C@H]2CC[C@H]3[C@@H]4[C@H](OC(C)=O)C[C@@H]5C[C@H](OC(C)=O)CC[C@]5(C)[C@H]4C[C@H](OC(C)=O)[C@]23C)nc2ccccc12`, the IC50 was 550 nM in data set [1], 5.1 µM in [4] and 52.8 nM in the data set with Plasmodium falciparum [5]. Moreover, the selectivity ratio in data set [2] was determined as 97; in “in vitro”, 9.3. Further, the “Ratio IC50” value with Plasmodium falciparum [3] is listed as 5.5; in data set [6], 123.6.

On to `C=C[C@H]1CN2CC[C@H]1C[C@@H]2[C@@H](O)c1cc(CC[C@@H](C)[C@H]2CC[C@H]3[C@@H]4C[C@H](O)[C@@H]5C[C@H](O)CC[C@]5(C)[C@H]4CC[C@]23C)nc2ccccc12`, for which the IC50 was 720 nM in [1], 5.49 µM in data set [4] and 71.6 nM in the data set with Plasmodium falciparum [5]. In addition, the selectivity ratio in data set [2] was found to be 77; in the data set “in vitro”, 7.6. Further, the “Ratio IC50” value in the data set with Plasmodium falciparum [3] was 4.1; in data set [6] it was 94.5.

With `C=C[C@H]1CN2CC[C@H]1C[C@H]2[C@H](O)c1cc(CC[C@@H](C)[C@H]2CC[C@H]3[C@@H]4C[C@H](OC(C)=O)[C@@H]5C[C@H](OC(C)=O)CC[C@]5(C)[C@H]4CC[C@]23C)nc2ccccc12`, the results for the IC50 (in data set [1]; in [4]; with Plasmodium falciparum [5]) were 1180 nM, 4.16 µM and 115 nM, respectively. The selectivity ratio is 36 in [2] and 3.5 in the data set “in vitro”. Moreover, the “Ratio IC50” value in the data set on Plasmodium falciparum [7] is listed as 8.3; in [8], 52.5.

Regarding `C=C[C@H]1CN2CC[C@H]1C[C@H]2[C@H](O)c1cc(CC[C@@H](C)[C@H]2CC[C@H]3[C@@H]4[C@H](OC(C)=O)[C@H](OC(C)=O)[C@@H]5C[C@H](OC(C)=O)CC[C@]5(C)[C@H]4CC[C@]23C)nc2ccccc12`, the figures for the 50% inhibitory concentration (IC50) (in [1]; in data set [4]; in the data set with Plasmodium falciparum [5]) were 520 nM, 3.75 µM and 36.1 nM, respectively. Further, the selectivity ratio in data set [2] turned out to be 104; in “in vitro”, 7.2. In addition, the “Ratio IC50” value is on record as 26.6 in the data set on Plasmodium falciparum [7] and 119.8 in data set [8].

Turning to `C=C[C@H]1CN2CC[C@H]1C[C@H]2[C@H](O)c1cc(CC[C@@H](C)[C@H]2CC[C@H]3[C@@H]4CC[C@@H]5C[C@H](OC(C)=O)CC[C@]5(C)[C@H]4C[C@H](OC(C)=O)[C@]23C)nc2ccccc12`, the IC50 in data set [1] amounted to 570 nM; in data set [4], 4.06 µM; with Plasmodium falciparum [5] it was 77.2 nM. Besides, the selectivity ratio in [2] came out at 53; in “in vitro”, 7.1. For the same compound, the “Ratio IC50” value in the data set with Plasmodium falciparum [7] is 12.5; in data set [8], 108.2.

As for `C=C[C@H]1CN2CC[C@H]1C[C@H]2[C@H](O)c1cc(CC[C@@H](C)[C@H]2CC[C@H]3[C@@H]4[C@H](OC(C)=O)C[C@@H]5C[C@H](OC(C)=O)CC[C@]5(C)[C@H]4C[C@H](OC(C)=O)[C@]23C)nc2ccccc12`, the IC50 in data set [1] is 1470 nM; in data set [4], 6.7 µM; in the data set with Plasmodium falciparum [5] it was 40.6 nM. Further, the selectivity ratio was 165 in data set [2] and 4.6 in the data set “in vitro”. In addition, the “Ratio IC50” value is 23.7 in the data set with Plasmodium falciparum [7] and 42.4 in data set [8].

For `C=C[C@H]1CN2CC[C@H]1C[C@H]2[C@H](O)c1cc(CC[C@@H](C)[C@H]2CC[C@H]3[C@@H]4C[C@H](O)[C@@H]5C[C@H](O)CC[C@]5(C)[C@H]4CC[C@]23C)nc2ccccc12`, the figures for the half-maximal inhibitory concentration (IC50) (in data set [1]; in data set [4]; with Plasmodium falciparum [5]) were 530 nM, 3.28 µM and 92.1 nM, respectively. Also, the selectivity ratio is 36 in data set [2] and 6.2 in the data set “in vitro”. Besides, the “Ratio IC50” value amounted to 10.5 in the data set on Plasmodium falciparum [7] and 116.7 in data set [8].

`C=C[C@H]1CN2CC[C@H]1C[C@H]2[C@H](O)c1cc(CC[C@@H](C)[C@H]2CC[C@H]3[C@@H]4[C@H](O)[C@H](O)[C@@H]5C[C@H](O)CC[C@]5(C)[C@H]4CC[C@]23C)nc2ccccc12`: the IC50 in data set [1] is 620 nM; in [4], 5.32 µM; in the data set with Plasmodium falciparum [5] it was 392 nM. Besides, the figures for the selectivity ratio (in [2]; in “in vitro”) were 14 and 8.6, respectively. Also, the “Ratio IC50” value in the data set on Plasmodium falciparum [7] is given as 2.5; in data set [8], 100.5.

In the case of `C=C[C@H]1CN2CC[C@H]1C[C@H]2[C@H](O)c1cc(CC[C@@H](C)[C@H]2CC[C@H]3[C@@H]4CC[C@@H]5C[C@H](O)CC[C@]5(C)[C@H]4C[C@H](O)[C@]23C)nc2ccccc12`, the IC50 in [1] was found to be 660 nM; in data set [4], 5.64 µM; in the data set on Plasmodium falciparum [5] it was 320 nM. The selectivity ratio in data set [2] was determined as 18; in the data set “in vitro” it was 8.6. The “Ratio IC50” value with Plasmodium falciparum [7] is 3; in data set [8], 94.8.

On to `C=C[C@H]1CN2CC[C@H]1C[C@H]2[C@H](O)c1cc(CC[C@@H](C)[C@H]2CC[C@H]3[C@@H]4[C@H](O)C[C@@H]5C[C@H](O)CC[C@]5(C)[C@H]4C[C@H](O)[C@]23C)nc2ccccc12`, for which the IC50 in data set [1] came to 1750 nM; in data set [4] it was 8.09 µM; in the data set with Plasmodium falciparum [5], 1800 nM. Further, the selectivity ratio was 4 in [2] and 4.6 in the data set “in vitro”. For the same compound, the “Ratio IC50” value is listed as 0.5 in the data set on Plasmodium falciparum [7] and 35.6 in data set [8].
